This test deals with T1, Coagulation factor XII (Homo sapiens, UniProt P00748).
T1 sequence (P00748 whole entry): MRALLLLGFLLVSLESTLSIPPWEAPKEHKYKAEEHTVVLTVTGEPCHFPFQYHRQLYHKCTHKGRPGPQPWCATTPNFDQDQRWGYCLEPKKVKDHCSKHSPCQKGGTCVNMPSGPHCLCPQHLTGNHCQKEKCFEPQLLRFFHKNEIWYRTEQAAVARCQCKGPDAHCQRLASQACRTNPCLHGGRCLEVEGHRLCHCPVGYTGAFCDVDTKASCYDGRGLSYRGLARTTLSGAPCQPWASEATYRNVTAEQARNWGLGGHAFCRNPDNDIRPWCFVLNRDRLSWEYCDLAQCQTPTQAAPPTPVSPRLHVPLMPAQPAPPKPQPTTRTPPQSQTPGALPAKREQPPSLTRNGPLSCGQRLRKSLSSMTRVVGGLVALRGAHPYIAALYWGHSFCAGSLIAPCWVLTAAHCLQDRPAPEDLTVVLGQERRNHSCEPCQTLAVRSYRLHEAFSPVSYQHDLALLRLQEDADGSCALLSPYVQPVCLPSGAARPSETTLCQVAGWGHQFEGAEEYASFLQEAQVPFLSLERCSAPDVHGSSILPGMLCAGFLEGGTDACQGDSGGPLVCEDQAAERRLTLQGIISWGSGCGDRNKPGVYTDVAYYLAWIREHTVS
In words: FXIIa inhibition potency, concentration-response curve, biochemical assay (AID 716).

Where only a bound is given, the exact number is not on record here.

The term IC50 denotes the concentration that gives 50% inhibition. Read a high IC50 as weaker potency in that assay.

The compound `C=CCOC(=O)C1=C(C)N=C(C)C(C(=O)OCC=C)C1c1ccc(O)cc1` (configuration not stated) [SMR000107649] came in with an IC50 of more than 50 µM.

Compound `CC(C)C1c2c(-c3cccs3)n[nH]c2OC(=N)C1C#N` (configuration not stated) [SMR000014022] displayed an IC50 of more than 50 µM.

Source of the values: BindingDB's records for doi:10.7270/Q2BC3WZZ (Pcmd, 2008).
